# Assay results reported in ChEMBL document CHEMBL3112450, “Synthesis and in vitro antitumor evaluation of primary amine substituted quinazoline linked benzimidazole” (Bioorg Med Chem Lett, 2014).
# Columns and labels:
# Format in all cases: functional
# UACC-62 = assay: Cytotoxicity against human UACC62 cells assessed as cell growth at 10^-8 M after 48 hrs by SRB assay; conditions: UACC-62, 48 h, read-out: Activity
# 786-0 [1] = assay: Cytotoxicity against human 786-0 cells after 48 hrs by SRB assay; conditions: 786-0, 48 h
# MDA-MB-468 [2] = assay: Cytotoxicity against human MDA-MB-468 cells assessed as cell growth at 10^-8 M after 48 hrs by SRB assay; conditions: MDA-MB-468, 48 h, read-out: Activity
# MOLT-4 = assay: Cytotoxicity against human MOLT4 cells assessed as cell growth at 10^-6 M after 48 hrs by SRB assay; conditions: MOLT-4, 48 h, read-out: Activity
# [3] = Cytotoxicity against human NCI-ADR-RES cells after 48 hrs by SRB assay
# MDA-MB-435 = assay: Cytotoxicity against human MDA-MB-435 cells assessed as cell growth at 10^-8 M after 48 hrs by SRB assay; conditions: MDA-MB-435, 48 h, read-out: Activity
# NCI-H23 [4] = assay: Cytotoxicity against human NCI-H23 cells assessed as cell growth at 10^-6 M after 48 hrs by SRB assay; conditions: NCI-H23, 48 h, read-out: Activity
# NCI-H460 [5] = assay: Cytotoxicity against human NCI-H460 cells assessed as cell growth at 10^-4 M after 48 hrs by SRB assay; conditions: NCI-H460, 48 h, read-out: Activity
# PC-3 [6] = assay: Cytotoxicity against human PC3 cells assessed as cell growth at 10^-8 M after 48 hrs by SRB assay; conditions: PC-3, 48 h, read-out: Activity
# SR = assay: Cytotoxicity against human SR cells assessed as cell growth at 10^-4 M after 48 hrs by SRB assay; conditions: read-out: Activity
# MDA-MB-468 [7] = assay: Cytotoxicity against human MDA-MB-468 cells assessed as cell growth at 10^-6 M after 48 hrs by SRB assay; conditions: MDA-MB-468, 48 h, read-out: Activity
# ACHN = assay: Cytotoxicity against human ACHN cells assessed as cell growth at 10^-7 M after 48 hrs by SRB assay; conditions: read-out: Activity
# SW-620 = assay: Cytotoxicity against human SW620 cells assessed as cell growth at 10^-7 M after 48 hrs by SRB assay; conditions: SW-620, 48 h, read-out: Activity
# SNB-19 = assay: Cytotoxicity against human SNB19 cells assessed as cell growth at 10^-6 M after 48 hrs by SRB assay; conditions: SNB-19, 48 h, read-out: Activity
# T47D [8] = assay: Cytotoxicity against human T47D cells assessed as cell growth at 10^-8 M after 48 hrs by SRB assay; conditions: read-out: Activity
# LOX IMVI = assay: Cytotoxicity against human LOXIMVI cells assessed as cell growth at 10^-8 M after 48 hrs by SRB assay; conditions: read-out: Activity
# RPMI-8226 = assay: Cytotoxicity against human RPMI8226 cells assessed as cell growth at 10^-6 M after 48 hrs by SRB assay; conditions: RPMI-8226, 48 h, read-out: Activity
# KM12 = assay: Cytotoxicity against human KM12 cells assessed as cell growth at 10^-6 M after 48 hrs by SRB assay; conditions: KM12, 48 h, read-out: Activity
# NCI-H226 [9] = assay: Cytotoxicity against human NCI-H226 cells after 48 hrs by SRB assay; conditions: NCI-H226, 48 h
# [10] = Cytotoxicity against human Hs578T cells assessed as cell growth at 10^-6 M after 48 hrs by SRB assay; conditions: Hs-578T, read-out: Activity
# T47D [11] = assay: Cytotoxicity against human T47D cells assessed as cell growth at 10^-4 M after 48 hrs by SRB assay; conditions: read-out: Activity
# OVCAR-8 [12] = assay: Cytotoxicity against human OVCAR8 cells assessed as cell growth at 10^-8 M after 48 hrs by SRB assay; conditions: OVCAR-8, 48 h, read-out: Activity
# NCI-H23 [13] = assay: Cytotoxicity against human NCI-H23 cells assessed as cell growth at 10^-7 M after 48 hrs by SRB assay; conditions: NCI-H23, 48 h, read-out: Activity
# HCT-15 [14] = assay: Cytotoxicity against human HCT15 cells assessed as cell growth at 10^-6 M after 48 hrs by SRB assay; conditions: HCT-15, 48 h, read-out: Activity
# SK-OV-3 = assay: Cytotoxicity against human SKOV3 cells assessed as cell growth at 10^-6 M after 48 hrs by SRB assay; conditions: SK-OV-3, 48 h, read-out: Activity
# [15] = Cytotoxicity against human Hs578T cells after 48 hrs by SRB assay; conditions: Hs-578T
# NCI-H460 [16] = assay: Cytotoxicity against human NCI-H460 cells after 48 hrs by SRB assay; conditions: NCI-H460, 48 h
# HL-60(TB) = assay: Cytotoxicity against human HL-60(TB) cells assessed as cell growth at 10^-7 M after 48 hrs by SRB assay; conditions: HL-60, 48 h, read-out: Activity
# SK-MEL-28 = assay: Cytotoxicity against human SK-MEL-28 cells assessed as cell growth at 10^-7 M after 48 hrs by SRB assay; conditions: SK-MEL-28, 48 h, read-out: Activity
# IGROV-1 = assay: Cytotoxicity against human IGROV1 cells assessed as cell growth at 10^-7 M after 48 hrs by SRB assay; conditions: IGROV-1, 48 h, read-out: Activity
# SN12C = assay: Cytotoxicity against human SN12C cells assessed as cell growth at 10^-8 M after 48 hrs by SRB assay; conditions: read-out: Activity
# 786-0 [17] = assay: Cytotoxicity against human 786-0 cells assessed as cell growth at 10^-8 M after 48 hrs by SRB assay; conditions: 786-0, 48 h, read-out: Activity
# [18] = Cytotoxicity against human UO31 cells assessed as cell growth at 10^-6 M after 48 hrs by SRB assay; conditions: UO-31, 48 h, read-out: Activity
# PC-3 [19] = assay: Cytotoxicity against human PC3 cells assessed as cell growth at 10^-6 M after 48 hrs by SRB assay; conditions: PC-3, 48 h, read-out: Activity
# [20] = Cytotoxicity against human NCI-ADR-RES cells assessed as cell growth at 10^-4 M after 48 hrs by SRB assay; conditions: read-out: Activity
# NCI-H226 [21] = assay: Cytotoxicity against human NCI-H226 cells assessed as cell growth at 10^-6 M after 48 hrs by SRB assay; conditions: NCI-H226, 48 h, read-out: Activity
# HCT-15 [22] = assay: Cytotoxicity against human HCT15 cells assessed as cell growth at 10^-4 M after 48 hrs by SRB assay; conditions: HCT-15, 48 h, read-out: Activity
# OVCAR-8 [23] = assay: Cytotoxicity against human OVCAR8 cells assessed as cell growth at 10^-4 M after 48 hrs by SRB assay; conditions: OVCAR-8, 48 h, read-out: Activity
# M14 = assay: Cytotoxicity against human M14 cells assessed as cell growth at 10^-4 M after 48 hrs by SRB assay; conditions: M14, 48 h, read-out: Activity
smiles,measurement,setting,value
C=CCn1c(C)nc2ccc(Nc3nc(Nc4ccc(F)cc4)nc4ccccc34)cc21,growth at 0.01 µM,UACC-62,99%
same,GI50,786-0 [1],7.44 µM
same,TGI,786-0 [1],23.8 µM
same,CC50,786-0 [1]; read-out: LC50 (the source's name),65.1 µM
same,growth at 0.01 µM,MDA-MB-468 [2],78%
same,growth at 1 µM,MOLT-4,73%
same,GI50,[3],4.01 µM
same,LC50,[3],> 100 µM
same,TGI,[3],37.7 µM
same,growth at 0.01 µM,MDA-MB-435,97%
same,growth at 1 µM,NCI-H23 [4],88%
same,growth at 100 µM,NCI-H460 [5],-55%
same,growth at 0.01 µM,PC-3 [6],98%
same,growth at 100 µM,SR,-22%
same,growth at 1 µM,MDA-MB-468 [7],64%
same,growth at 0.1 µM,ACHN,97%
same,growth at 0.1 µM,SW-620,95%
same,growth at 1 µM,SNB-19,86%
same,growth at 0.01 µM,T47D [8],85%
same,growth at 0.01 µM,LOX IMVI,97%
same,growth at 1 µM,RPMI-8226,84%
same,growth at 1 µM,KM12,94%
same,GI50,NCI-H226 [9],1.78 µM
same,TGI,NCI-H226 [9],3.85 µM
same,growth at 1 µM,[10],86%
same,growth at 100 µM,T47D [11],-13%
same,growth at 0.01 µM,OVCAR-8 [12],98%
same,growth at 0.1 µM,NCI-H23 [13],87%
same,growth at 1 µM,HCT-15 [14],91%
same,growth at 1 µM,SK-OV-3,100%
same,GI50,[15],9.83 µM
same,LC50,[15],> 100 µM
same,TGI,[15],56.7 µM
same,GI50,NCI-H460 [16],3.11 µM
same,LC50 (concentration killing 50% of cells),NCI-H460 [16],83.9 µM
same,TGI,NCI-H460 [16],14.5 µM
same,growth at 0.1 µM,HL-60(TB),100%
same,growth at 0.1 µM,SK-MEL-28,102%
same,growth at 0.1 µM,IGROV-1,94%
same,growth at 0.01 µM,SN12C,93%
same,growth at 0.01 µM,786-0 [17],93%
same,growth at 1 µM,[18],83%
same,growth at 1 µM,PC-3 [19],84%
same,growth at 100 µM,[20],-15%
same,growth at 1 µM,NCI-H226 [21],87%
same,growth at 100 µM,HCT-15 [22],-38%
same,growth at 100 µM,OVCAR-8 [23],-26%
same,growth at 100 µM,M14,-44%
